{"source": "patent US9382233B2", "about": "“Forms of vilazodone and processes for the preparation thereof” (APOTEX INC., priority 2012, dated 2016)", "origin": "cited, not measured here", "conditions": "benzyl alcohol and its equivalents (benzoic acid, benzoate salts, benzaldehyde, benzyl acetate and benzyl benzoate); World Health Organization (JECFA, 2001)"}
{"smiles": "OCc1ccccc1", "note": "[benzyl alcohol]", "values": [{"measurement": "acceptable daily intake (ADI)", "value": 5, "unit": "mg/kg"}]}
